Patent US6610677B2, “Pyrazole compounds useful as protein kinase inhibitors” (Vertex Pharmaceuticals Incorporated, priority 2000, dated 2003)
Like-named read-outs stand apart in the source and are kept apart here.

Key:
Aurora-2 = biological target: T1, Aurora-2 (Homo sapiens, UniProt O14965); assay: Ki determination for the inhibition of Aurora-2 (coupled enzyme assay); type: biochemical; details: 70 nM Aurora-2, peptide LRRASLG, 30° C
T1 sequence (O14965 1-403): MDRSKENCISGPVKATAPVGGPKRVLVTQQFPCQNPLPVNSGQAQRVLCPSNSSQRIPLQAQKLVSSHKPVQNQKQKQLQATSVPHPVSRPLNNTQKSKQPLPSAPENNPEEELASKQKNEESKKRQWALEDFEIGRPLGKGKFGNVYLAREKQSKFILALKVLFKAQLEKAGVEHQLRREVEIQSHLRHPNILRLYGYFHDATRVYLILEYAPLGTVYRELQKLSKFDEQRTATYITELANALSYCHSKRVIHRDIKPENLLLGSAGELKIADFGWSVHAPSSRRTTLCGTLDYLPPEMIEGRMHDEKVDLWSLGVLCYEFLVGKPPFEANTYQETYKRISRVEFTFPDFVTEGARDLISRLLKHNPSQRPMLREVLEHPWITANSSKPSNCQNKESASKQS
Summary of the method: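 Ki came from reaction rates plotted against inhibitor concentration, with rates taken as A340 decrease over 5 min at 30° C. Enzyme (70 nM final) was added after 10 min compound preincubation; stock buffer held […], 800 μM LRRASLG, PK/LDH coupling, pH 7.5.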

human Src kinase = biological target: T2, human Src kinase (Homo sapiens, UniProt P12931); assay: SRC inhibition assay (radioactivity-based or spectrophotometric assay); type: biochemical; details: assay A or B not specified
T2 construct: full length recombinant human Src kinase; purchased Upstate Biotechnology 14-117; host or cells: baculo viral cells (baculovirus expression system)
T2 sequence (P12931 whole entry): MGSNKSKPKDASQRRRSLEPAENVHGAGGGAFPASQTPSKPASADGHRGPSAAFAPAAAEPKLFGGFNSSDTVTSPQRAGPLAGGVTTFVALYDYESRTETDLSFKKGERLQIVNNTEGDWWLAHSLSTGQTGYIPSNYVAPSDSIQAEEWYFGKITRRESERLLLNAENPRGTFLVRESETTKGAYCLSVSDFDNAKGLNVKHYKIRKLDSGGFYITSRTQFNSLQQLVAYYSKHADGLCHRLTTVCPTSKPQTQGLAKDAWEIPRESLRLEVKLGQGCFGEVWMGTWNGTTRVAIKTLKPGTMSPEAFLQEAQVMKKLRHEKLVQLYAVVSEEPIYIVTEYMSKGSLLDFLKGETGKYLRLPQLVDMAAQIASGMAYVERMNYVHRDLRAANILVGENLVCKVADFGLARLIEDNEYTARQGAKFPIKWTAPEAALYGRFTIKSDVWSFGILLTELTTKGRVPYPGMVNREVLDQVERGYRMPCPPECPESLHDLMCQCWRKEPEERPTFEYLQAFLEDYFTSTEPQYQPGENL
Description: The compounds were evaluated as inhibitors of human Src kinase using either a radioactivity-based assay or spectrophotometric assay. The compounds were assayed as inhibitors of full length recombinant human Src kinase (from Upstate Biotechnology, cat. no. 14-117) expressed and purified from baculo viral cells. […] P-0275). […] In a typical assay, all the reaction components with the exception of ATP were pre-mixed and aliquoted into assay plate wells. Inhibitors dissolved in DMSO were added to the wells to give a final DMSO concentration of 2.5%. The assay plate was incubated at 30° C. for 10 min before initiating the reaction with ^33P-ATP. After 20 min of reaction, the reactions were quenched with 150 μl of 10% trichloroacetic acid (TCA) containing 20 mM Na3PO4. The quenched samples were then transferred to a 96-well filter plate (Whatman, UNI-Filter GF/F Glass Fiber Filter, cat no. 7700-3310) installed on a filter plate vacuum manifold. Filter plates were washed four times with 10% TCA containing 20 mM Na3PO4 and then 4 times with methanol. 200 μl of scintillation fluid was then added to each well. The plates were sealed and the amount of radioactivity associated with the filters was quantified on a TopCount scintillation counter. The radioactivity incorporated was plotted as a function of the inhibitor concentration. The data was fitted to a competitive inhibition kinetics model to get the Ki for the compound. The ADP produced from ATP by the human recombinant Src kinase-catalyzed phosphorylation of poly Glu-Tyr substrate was quanitified using a coupled enzyme assay (Fox et al (1998) Protein Sci 7, 2249). In this assay one molecule of NADH is oxidised to NAD for every molecule of ADP produced in the kinase reaction. The disappearance of NADH can be conveniently followed at 340 nm. […] In a typical assay, all the reaction components with the exception of ATP were pre-mixed and aliquoted into assay plate wells. Inhibitors dissolved in DMSO were added to the wells to give a final DMSO concentration of 2.5%. […] The absorbance change at 340 nm with time, the rate of the reaction, was monitored on a molecular devices plate reader. The data of rate as a function of the inhibitor concentration was fitted to compettive inhibition kinetics model to get the Ki for the compound.

GSK-3β (AA 1-420) = biological target: T3, GSK-3β (AA 1-420) (Homo sapiens, UniProt P49841); assay: Ki determination for the inhibition of GSK-3 (coupled enzyme system); type: biochemical; details: 20 μM ATP, 300 μM peptide, 20 nM GSK-3β, 30° C
T3 construct: GSK-3β (AA 1-420)
T3 sequence (P49841 whole entry, the tested form may be a part): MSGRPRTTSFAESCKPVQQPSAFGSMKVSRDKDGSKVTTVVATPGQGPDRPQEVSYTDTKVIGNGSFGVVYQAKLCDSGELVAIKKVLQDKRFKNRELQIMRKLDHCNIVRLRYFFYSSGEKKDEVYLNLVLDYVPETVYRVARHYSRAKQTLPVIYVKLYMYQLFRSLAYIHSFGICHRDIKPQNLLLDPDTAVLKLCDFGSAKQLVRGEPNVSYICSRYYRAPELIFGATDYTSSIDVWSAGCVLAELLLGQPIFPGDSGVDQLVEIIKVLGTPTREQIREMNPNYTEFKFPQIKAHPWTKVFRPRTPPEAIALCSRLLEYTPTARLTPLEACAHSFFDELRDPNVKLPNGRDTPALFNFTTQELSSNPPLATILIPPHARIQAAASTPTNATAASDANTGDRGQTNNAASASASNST
Summary of the method: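 Ki values come from reaction rates over 10 min at 30 °C as a function of inhibitor concentration (12-point titration, 0.002–30 μM, 10 min preincubation). GSK-3β (AA 1-420, 20 nM) phosphorylated 300 μM primed peptide with 20 μM ATP; ADP formation followed by coupled NADH oxidation, pH 7.5.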

Compound	Ki (Aurora-2) [nM]	Ki (human Src kinase; read-out: Ki value on SRC) [nM]	Ki (GSK-3β (AA 1-420)) [nM]	melting point [°C]	Ki (human Src kinase; read-out: Ki value for SRC) [nM]
Cc1cc(Nc2nc(-c3ccc(I)cc3)nc3ccccc23)[nH]n1 [III-32, [2-(4-Iodophenyl)-quinazolin-4-yl]-(5-methyl-2H-pyrazol-3-yl)-amine]	< 100	< 100	–	–	–
CCCc1cc(Nc2nc(-c3ccccc3)nc3ccccc23)[nH]n1 [III-66, (2-Phenyl-quinazolin-4-yl)-(5-propyl-2H-pyrazol-3-yl)-amine]	< 100	< 100	< 100	204 to 205	–
Cc1cc(Nc2nc(-c3ccc(Br)cc3)nc3ccccc23)[nH]n1 [III-34, [2-(4-Bromophenyl)-quinazolin-4-yl]-(5-methyl-2H-pyrazol-3-yl)-amine]	< 100	< 100	< 100	262 to 265	–
CCSc1ccc(-c2nc(Nc3cc(C)n[nH]3)c3ccccc3n2)cc1 [III-39, [2-(4-Ethylsulfanylphenyl)-quinazolin-4-yl]-(5-methyl-2H-pyrazol-3-yl)-amine]	< 100	< 100	< 100	229 to 231	–
OCCCc1cc(Nc2nc(-c3ccccc3)nc3ccccc23)[nH]n1 [III-76, [5-(3-Hydroxyprop-1-yl)-2H-pyrazol-3-yl]-(2-phenyl-quinazolin-4-yl)-amine]	< 100	< 100	< 100	164 to 165	–
Cc1cc(Nc2nc(-c3ccccc3)nc3ccccc23)[nH]n1 [III-31, (5-Methyl-2H-pyrazol-3-yl)-(2-phenyl-quinazolin-4-yl)-amine]	< 100	< 100	< 100	–	–
c1ccc(COCCCc2cc(Nc3nc(-c4ccccc4)nc4ccccc34)[nH]n2)cc1 [III-78, [5-(3-Benzyloxyprop-1-yl)-2H-pyrazol-3-yl]-(2-phenyl-quinazolin-4-yl)-amine]	< 100	< 100	100 to 1000	177 to 178	–
Cc1cc(Nc2nc(-c3cccc(I)c3)nc3ccccc23)[nH]n1 [III-38, [2-(3-Iodophenyl)-quinazolin-4-yl]-(5-methyl-2H-pyrazol-3-yl)-amine]	< 100	< 100	< 100	234 to 235	–
c1ccc(-c2nc(Nc3cc(C4CCCC4)n[nH]3)c3ccccc3n2)cc1 [III-70, (5-Cyclopentyl-2H-pyrazol-3-yl)-(2-phenyl-quinazolin-4-yl)-amine]	< 100	< 100	< 100	240 to 241	–
Cc1cc(Nc2nc(-c3ccc(C#N)cc3)nc3ccccc23)[nH]n1 [III-37, [2-(4-Cyanophenyl)-quinazolin-4-yl]-(5-methyl-2H-pyrazol-3-yl)-amine]	< 100	< 100	< 100	263	–
Cc1cc(Nc2nc(-c3ccc(Cl)cc3)nc3ccccc23)[nH]n1 [III-35, [2-(4-Chlorophenyl)-quinazolin-4-yl]-(5-methyl-2H-pyrazol-3-yl)-amine]	< 100	< 100	< 100	> 300	–
Clc1ccc(-c2nc(Nc3cc(C4CC4)n[nH]3)c3ccccc3n2)cc1 [III-42, [2-(4-Chlorophenyl)-quinazolin-4-yl]-(5-cyclopropyl-2H-pyrazol-3-yl)-amine]	< 100	< 100	< 100	–	–
CCc1cc(Nc2nc(-c3ccccc3)nc3ccccc23)[nH]n1 [III-65]	< 100	< 100	< 100	221 to 222	–
C#Cc1cccc(-c2nc(Nc3cc(C)n[nH]3)c3ccccc3n2)c1 [III-49, [2-(3-Ethynylphenyl)-quinazolin-4-yl]-(5-methyl-2H-pyrazol-3-yl)-amine]	< 100	< 100	< 100	204 to 207	–
COCCCc1cc(Nc2nc(-c3ccccc3)nc3ccccc23)[nH]n1 [III-77, [-(3-Methoxyprop-1-yl)-2H-pyrazol-3-yl]-(2-phenyl-quinazolin-4-yl)-amine]	< 100	–	< 100	169 to 170	–
COCc1cc(Nc2nc(-c3ccccc3)nc3ccccc23)[nH]n1 [III-75, (5-Methoxymethyl-2H-pyrazol-3-yl)-(2-phenyl-quinazolin-4-yl)-amine]	100 to 1000	–	< 100	190 to 191	–
Cc1cc(Nc2nc(-c3cccc(Oc4ccccc4)c3)nc3ccccc23)[nH]n1 [III-60, (5-Methyl-2H-pyrazol-3-yl)-[2-(3-phenoxyphenyl)-quinazolin-4-yl]-amine]	< 100	–	< 100	231 to 232	–
Cc1cc(Nc2nc(-c3ccc(-c4ccccc4)cc3)nc3ccccc23)[nH]n1 [III-47, (2-Biphenyl-4-yl-quinazolin-4-yl)-(5-methyl-2H-pyrazol-3-yl)-amine]	< 100	< 100	< 100	–	–
NCCCc1cc(Nc2nc(-c3ccccc3)nc3ccccc23)[nH]n1 [III-79, [5-(3-Aminoprop-1-yl)-2H-pyrazol-3-yl]-(2-phenyl-quinazolin-4-yl)-amine]	1000 to 20000	–	–	205 to 207	1000 to 6000
Cc1cc(Nc2nc(N3CCC(O)CC3)nc3ccccc23)[nH]n1 [III-114, [2-(4-Hydroxypiperidin-1-yl)-quinazolin-4-yl]-(5-methyl-2H-pyrazol-3-yl)-amine]	< 100	–	100 to 1000	123	–
OCc1cc(Nc2nc(-c3ccccc3)nc3ccccc23)[nH]n1 [III-74, (5-Hydroxymethyl-2H-pyrazol-3-yl)-(2-phenyl-quinazolin-4-yl)-amine]	100 to 1000	–	100 to 1000	238 to 239	–
c1ccc(-c2nc(Nc3ncn[nH]3)c3ccccc3n2)cc1 [IX-154, (2-Phenyl-quinazolin-4-yl)-(2H-[1,2,4]triazol-3-yl)-amine]	1000 to 20000	–	100 to 1000	266 to 267	–
c1ccc2c(Nc3ccn[nH]3)nc(-c3ccncc3)nc2c1 [III-64, (2H-Pyrazol-3-yl)-(2-pyridin-4-yl-quinazolin-4-yl)-amine]	100 to 1000	–	100 to 1000	285 to 286	–
Cc1cc(Nc2nc(-c3ccc(N(C)C)cc3)nc3ccccc23)[nH]n1 [III-44, [2-(4-Dimethylaminophenyl)-quinazolin-4-yl]-(5-methyl-2H-pyrazol-3-yl)-amine]	< 100	< 100	100 to 1000	–	–
Cc1cc(Nc2nc(N3CCN(C)CC3)nc3ccccc23)[nH]n1 [III-107, [2-(4-Methylpiperazin-1-yl)-quinazolin-4-yl]-(5-methyl-2H-pyrazol-3-yl)-amine]	100 to 1000	–	100 to 1000	105 to 107	–
C#Cc1ccc(-c2nc(Nc3cc(C)n[nH]3)c3ccccc3n2)cc1 [III-48, [2-(4-Ethynylphenyl)-quinazolin-4-yl]-(5-methyl-2H-pyrazol-3-yl)-amine]	< 100	< 100	< 100	–	–
